Experimental data: US7323303B2, “Modified β-lactamases and uses thereof” (priority 2003, dated 2008)

Experiments:
[1] = target: T1, E166Cf (fluorescein-labeled E166C mutant of β-lactamase I) (Bacillus cereus, UniProt P00809, E185C); experiment: Spectrophotometric substrate hydrolysis, steady-state kinetics; type: biochemical; settings: E166Cf; 50 mM potassium phosphate buffer pH 7.0, 20° C.
T1 construct: made in house; host or cells: B. subtilis 1A304 (φ105MU331); then labelled chemically
T1 sequence (P00809 28-306 E185C): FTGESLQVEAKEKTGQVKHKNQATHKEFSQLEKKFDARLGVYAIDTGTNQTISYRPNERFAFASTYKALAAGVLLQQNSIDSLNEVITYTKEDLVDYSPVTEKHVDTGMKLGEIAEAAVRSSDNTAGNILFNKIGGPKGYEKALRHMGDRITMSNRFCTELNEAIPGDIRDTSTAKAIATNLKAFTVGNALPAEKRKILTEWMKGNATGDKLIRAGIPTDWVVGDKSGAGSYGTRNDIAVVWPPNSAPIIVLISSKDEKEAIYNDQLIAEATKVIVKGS
Method: (§1) The hydrolytic activities of the wild-type β-lactamase I, E166C and E166Cf mutants towards penicillin G, penicillin V and ampicillin (Sigma) were monitored by the spectrophotometric method. The spectrophotometric measurements were performed on a Perkin Elmer Lambda Bio20 UV/Vis spectrometer. Substrate hydrolysis was monitored at a fixed wavelength: 235 nm for ampicillin, 232 nm for penicillin G and penicillin V. The initial rate of substrate hydrolysis occurring within 5 min was determined in duplicate at each of 6 different substrate concentrations in 50 mM potassium phosphate buffer (pH 7.0) at 20° C. The initial rates determined were then treated as described in Reference 5 to calculate the Michaelis constants (Km) and turnover numbers (kcat) using non-linear regression analysis (equation 1):
(§2) [formula] where v is the initial rate of substrate hydrolysis, Vmax the maximum rate of reaction, [S] the initial substrate concentration, Km the Michaelis constant and kcat=Vmax/[Enzyme].
(§3) The measured steady-state kinetic parameters for hydrolysis of penicillin G, penicillin V and ampicillin by the wild-type β-lactamase I, E166C and E166Cf mutants are summarized in Table 1.
At high substrate concentration (1.0×10^−5 and 1.0×10^−4 M), the penicillin substrates rapidly occupy the active sites to form the ES complexes, thus switching on the fluorescence of the fluorescein labels instantaneously. […] This can be verified by the fact that the ‘plateau time’ (8 and 22 min for 1.0×10^−5 and 1.0×10^−4 M penicillin G respectively) is consistent with the ‘substrate hydrolysis time’ determined by spectrophotometric assays (7 and 20 min for 1.0×10^−5 and 1.0×10^−4 M penicillin G respectively). When most of the penicillin substrates have been hydrolyzed to carboxylic acids, the fluorescence signal of the labeled enzyme will decline subsequently.

[2] = target: T2, E166C mutant of β-lactamase I (Bacillus cereus, UniProt P00809, E185C); experiment: as above; type: biochemical; settings: 50 mM potassium phosphate buffer pH 7.0, 20° C.
T2 construct: made in house; host or cells: B. subtilis 1A304 (φ105MU331)
T2 sequence (P00809 28-306 E185C): T1 sequence (P00809 28-306 E185C)
Method: as §1, §2, §3

[3] = target: T3, E166Cf enzyme (Bacillus cereus, UniProt P00809, E185C); experiment: Detection of β-lactam antibiotics in milk by E166Cf fluorescence; settings: untreated milk; E166Cf 1.2×10^−7 M
T3 construct: made in house; host or cells: B. subtilis 1A304 (φ105MU331); then labelled chemically
T3 sequence (P00809 28-306 E185C): T1 sequence (P00809 28-306 E185C)
Method: Fluorescence measurements of the E166Cf enzyme in milk in the presence of penicillin G and ampicillin were performed on a FLUOstar microplate reader (BMG Labtechnologies) equipped with two sample injectors. Excitation and emission filters of 485 and 520 nm respectively were used. Milk (pasteurized and homogenized, Nestle Dairy Farm) was purchased at a local supermarket. The labeled enzyme was mixed with the milk sample in a 96-well microtiter plate (Corning Costar). The antibiotics were then added to the mixtures by the injectors.
FIGS. 21 and 22 show the results from the time-resolved fluorescence measurements of the labeled enzyme (1.2×10^−7 M) in untreated milk in the presence of various concentrations of penicillin G and ampicillin respectively.

[4] = target: T4, E. coli TEM-1 β-lactamase (Escherichia coli, UniProt P62593); experiment: Drug screening: E166Cf fluorescence in presence of bacterial β-lactamase culture; type: biochemical; set-up: key: −: Decline in fluorescence signal (presence of beta-lactam hydrolysis); +: No decline in fluorescence signal (absence of beta-lactam hydrolysis); settings: E. coli TEM-1 culture, undiluted; antibiotic 1.0×10^−4 M; E166Cf 1.2×10^−7 M
T4 construct: made in house; host or cells: E. coli BL21(DE3); whole overnight culture used undiluted, not purified
T4 sequence (P62593 24-286 limits assumed): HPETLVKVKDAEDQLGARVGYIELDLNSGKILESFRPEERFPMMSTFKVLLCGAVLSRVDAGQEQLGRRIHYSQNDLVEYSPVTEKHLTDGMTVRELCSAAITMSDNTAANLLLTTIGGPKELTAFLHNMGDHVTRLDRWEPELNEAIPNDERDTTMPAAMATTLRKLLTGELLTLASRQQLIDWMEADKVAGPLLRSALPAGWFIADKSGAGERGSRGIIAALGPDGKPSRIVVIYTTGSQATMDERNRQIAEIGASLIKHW
Method: (§4) The use of the E166Cf enzyme in screening bacterial β-lactamases against various β-lactam antibiotics was investigated. The principle of our method is that when both E166Cf and bacterial β-lactamase are incubated with ‘β-lactamase-unstable’ antibiotics, the fluorescence of the E166Cf enzyme will be suppressed because of the greater catalytic efficiency of the bacterial enzyme. In contrast, when bacterial β-lactamases are screened against ‘β-lactamase-resistant’ antibiotics, the fluorescence of the E166Cf enzyme will be enhanced because of the poor hydrolytic activity of the bacterial enzyme. Thus, any β-lactam antibiotic that causes the labeled enzyme to increase its fluorescence intensity in the presence of bacterial β-lactamases can be used in clinical treatments.
The TEM-1 β-lactamase was expressed in E. coli. BL21(DE3). Preparation of the TEM-1 β-lactamase was performed as follows. A bacterial strain was streaked on an agar plate containing 100 μg/ml ampicillin, and the plate was incubated at 37° C. for 24 h. A single bacterial colony from the plate was inoculated into 100 ml of sterilized LB broth (28 g/l) which was then incubated at 37° C. with shaking at 280 rpm overnight. After overnight incubation, the bacterial culture was harvested and stored at −20° C.
(§5) Fluorescence measurements of the E166Cf enzyme in the presence of bacterial cultures and β-lactam antibiotics were performed on a FLUOstar microplate reader (BMG Labtechnologies) equipped with two sample injectors. Excitation and emission filters of 485 and 520 nm respectively were used. For B. cereus penPC β-lactamase, B. licheniformis penP β-lactamase and B. cereus β-lactamase II, the labeled enzymes were mixed with the bacterial cultures, and the mixtures were made up to 300 μl with 50 mM phosphate buffer (pH 7.0) in a 96-well microtiter plate (Corning Costar). For the purpose of comparison, B. subtilis cultures, which produced no β-lactamase, were set up as negative controls. For E. coli. TEM-1 β-lactamase, the labeled enzymes were mixed with the bacterial cultures without dilution. E. coli. cultures, which produced no β-lactamase, were set up as negative controls for comparison. The antibiotics were then added to the bacterial samples by the injectors.
(§6) The results from the time-resolved fluorescence measurements of the labeled enzyme (1.2×10^−7 M) in the presence of various bacterial cultures and β-lactam antibiotics (1.0×10^−4 M) are shown in FIGS. 23 to 26.

[5] = target: T5, B. cereus penPC β-lactamase (Bacillus cereus, UniProt P00809); experiment: as above; type: biochemical; set-up: key: −: Decline in fluorescence signal (presence of beta-lactam hydrolysis); +: No decline in fluorescence signal (absence of beta-lactam hydrolysis); settings: antibiotic 1.0×10^−4 M, E166Cf 1.2×10^−7 M
T5 construct: made in house; host or cells: B. subtilis 1A304 (φ105MU331); whole culture used, not purified
T5 sequence (P00809 28-306): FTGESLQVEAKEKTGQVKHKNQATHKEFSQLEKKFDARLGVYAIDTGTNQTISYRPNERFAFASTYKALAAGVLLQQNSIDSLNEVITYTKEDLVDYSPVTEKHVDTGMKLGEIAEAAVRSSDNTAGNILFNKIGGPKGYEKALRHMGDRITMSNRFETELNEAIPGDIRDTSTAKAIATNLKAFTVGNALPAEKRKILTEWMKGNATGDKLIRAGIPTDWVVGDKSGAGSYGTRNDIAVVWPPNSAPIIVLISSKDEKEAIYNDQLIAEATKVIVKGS
Method: as §4
(§7) The β-lactamase II, penPC β-lactamase and penP β-lactamase were expressed in B. subtilis 1A304 (φ105MU331). These enzymes were prepared according to the procedures described previously (Reference 7: Thomwell, S. J. East, A. K., Errington, J. An efficient expression and secretion system based on Bacillus subtilis phage phi 105 and its uses for the production for B. cereus β-lactamase I. (1993) Gene 133, 47-53) with slight modifications. A bacterial strain was streaked on an agar plate containing 5 μg/ml chloramphenicol, and the plate was incubated at 37° C. for 24 h. A single bacterial colony from the agar plate was inoculated into 100 ml of sterilized BHY medium (37 g/l brain heart infusion and 5 g/l yeast extract) which was then incubated at 37° C. with shaking at 300 rpm overnight. About 7 ml of overnight inoculum was added to a baffled conical flask containing 100 ml of sterilized BHY medium. The inoculated medium was incubated at 37° C. with shaking at 300 rpm. When the optical density of the bacterial culture at 600 nm reached 3.5 to 4.0, the bacterial culture was heated in a water bath at 51° C. for 5 min. Afterwards, the bacterial culture was incubated at 37° C. with shaking at 300 rpm for a further 6 h. The bacterial culture was then harvested and stored at −20° C.
as §5, §6

[6] = target: T6, B. licheniformis penP β-lactamase (Bacillus licheniformis, UniProt P00808); experiment: as above; type: biochemical; set-up: key: −: Decline in fluorescence signal (presence of beta-lactam hydrolysis); +: No decline in fluorescence signal (absence of beta-lactam hydrolysis); settings: antibiotic 1.0×10^−4 M, E166Cf 1.2×10^−7 M
T6 construct: made in house; host or cells: B. subtilis 1A304 (φ105MU331); whole culture used, not purified
T6 sequence (P00808 27-307): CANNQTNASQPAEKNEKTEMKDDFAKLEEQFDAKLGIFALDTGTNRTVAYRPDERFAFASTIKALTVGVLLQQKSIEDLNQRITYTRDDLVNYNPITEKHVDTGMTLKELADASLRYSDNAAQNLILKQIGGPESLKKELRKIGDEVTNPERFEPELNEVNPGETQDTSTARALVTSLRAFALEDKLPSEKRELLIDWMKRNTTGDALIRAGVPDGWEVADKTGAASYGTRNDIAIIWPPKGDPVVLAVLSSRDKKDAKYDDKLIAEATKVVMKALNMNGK
Method: as §4, §7, §5, §6

[7] = target: T7, B. cereus β-lactamase II (Bacillus cereus, UniProt P04190); experiment: as above; type: biochemical; set-up: key: −: Decline in fluorescence signal (presence of beta-lactam hydrolysis); +: No decline in fluorescence signal (absence of beta-lactam hydrolysis); settings: antibiotic 1.0×10^−4 M, E166Cf 1.2×10^−7 M
T7 construct: made in house; host or cells: B. subtilis 1A304 (φ105MU331); whole culture used, not purified
T7 sequence (P04190 31-257): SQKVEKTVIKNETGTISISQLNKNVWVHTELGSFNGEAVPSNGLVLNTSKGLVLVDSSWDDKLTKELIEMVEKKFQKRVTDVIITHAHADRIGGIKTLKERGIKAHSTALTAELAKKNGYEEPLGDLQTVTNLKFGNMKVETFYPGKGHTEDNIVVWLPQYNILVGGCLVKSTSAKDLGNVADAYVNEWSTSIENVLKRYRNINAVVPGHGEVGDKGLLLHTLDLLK
Method: as §4, §7, §5, §6

[8] = target: T3, E166Cf enzyme; experiment: Time-resolved fluorescence of E166Cf enzyme with β-lactamase inhibitors; type: biochemical; settings: 1.0×10^−4 M inhibitor; E166Cf 1.2×10^−7 M, 50 mM phosphate buffer pH 7.0
Method: Time-resolved fluorescence measurements of the E166Cf enzyme in the presence of sulbactam and clavulanate were performed on a Perkin Elmer LS50B spectrofluorometer. The excitation and emission wavelengths were set at 494 and 515 nm respectively. Both excitation and emission slit widths were set at 5 nm. All fluorescence measurements were performed at room temperature.
The fluorescence signals of the labeled enzyme (1.2×10^−7 M) obtained with sulbactam (1.0×10^−4 M) and clavulanate (1.0×10^−3 M) in 50 mM phosphate buffer (pH 7.0) are entirely different (FIGS. 18 and 19).

SMILES | Km [1] | kcat [1] | Km [2] | kcat [2] | lowest concentration detected by the labeled enzyme [3] | fluorescence signal of E166Cf (beta-lactam hydrolysis) [4] | fluorescence signal of E166Cf (beta-lactam hydrolysis) [5] | fluorescence signal of E166Cf (beta-lactam hydrolysis) [6] | fluorescence signal of E166Cf (beta-lactam hydrolysis) [7] | time course of E166Cf fluorescence intensity at 515 nm [8]
CC1(C)S[C@@H]2[C@H](NC(=O)[C@H](N)c3ccccc3)C(=O)N2[C@H]1C(=O)O [Ampicillin, ampicillin] | 262 ± 31 µM | 6.2 ± 0.2 s⁻¹ | 306 ± 30 µM | 4.1 ± 0.1 s⁻¹ | 10^−6 M | − | − | − | − | 
CC1(C)[C@H](C(=O)O)N2C(=O)C[C@H]2S1(=O)=O [sulbactam] |  |  |  |  |  |  |  |  |  | increases rapidly at the initial stage and then declines slowly
